Results from patent US10407388B2, “Thiourea derivatives as activators of RORα and pharmaceutical composition containing same” (SEOUL NATIONAL UNIVERSITY R & DB FOUNDATION, priority 2011, dated 2019).

Tests used:
[1] = test system: high-fat diet-induced fatty liver mice model; test: Blood biochemical analysis in high-fat diet-induced fatty liver mice model; format: in vivo; conditions: FIG. 13; for amount of blood triglycerides, which had been increased by the high-fat diet / amount of blood glucose / amount of total blood cholesterol: oral, 10 mg/kg/day or 30 mg/kg/day for 2 days; for amount of blood glucose / amount of total blood cholesterol: versus high-fat diet group
Description: 3 days after the diet was fed, the mice were fed the high-fat diet containing safflower oil while being orally administered JC1-40 and JC142, which had been diluted with 0.5% carboxymethyl cellulose, at a dose of 10 mg/kg/day or 30 mg/kg/day for 2 days. 5 days after the diet was fed, the mice were sacrificed to collect blood, and serum samples were collected therefrom.

HepG2 cells = test: Lipid accumulation in hepatocytes, Nile red staining and flow cytometry; format: cell-based, human; conditions: 50 μM with oleic acid/palmitic acid mixture, 3 days; FIGS. 10a and 10b
Description: HepG2 cells (3×10^5 cells/well) were seeded on a 60-dish and cultured overnight in a DMEM containing 10% FBS. The HepG2 cells were maintained at 37° C. in a humidification thermostat containing 5% CO2 and 95% air. After culturing, the HepG2 cells were treated with 50 μM JC1-40 (or JC1-42) and, as a lipid generation inducing material, a fatty acid mixture prepared by mixing 0.5 mM oleic acid and 0.5 mM palmitic acid in a ratio of 2:1 (5 mM oleic acid and 5 mM palmitic acid were mixed in a medium containing 1% fatty acid-free bovine serum albumin (BSA) and diluted to the final concentration prior to use) for 3 days. After 3 days, cell lysates were collected, and stained with 1 μg/ml of Nile red at room temperature for 15 minutes, and the concentration of triglycerides was measured by a flow cytometry method using a FACSCalibur™ machine (BD Biosciences). Fluorescence emission was measured at a wavelength between 500 nm and 580 nm. The results thereof are illustrated in FIGS. 10a and 10b.

ACC = test: Phosphorylation of ACC in liver of mice with high-fat diet-induced fatty liver, western blotting; format: in vivo; conditions: oral, 10 mg/kg/day or 30 mg/kg/day for 2 days; liver tissue; FIG. 11b
Description: 3 days after the diet was fed, the mice were fed the high-fat diet containing safflower oil while being orally administered JC1-40 and JC1-42, which had been diluted with 0.5% carboxymethyl cellulose, at a dose of 10 mg/kg/day or 30 mg/kg/day for 2 days. 5 days after the diet was fed, the mice were sacrificed to extract liver tissues therefrom, and the expression of proteins was analyzed by western blotting analysis. That is, after treatment, each liver tissue was homogenized in a lysis buffer containing 50 mM NaCl, 50 mM Tris pH 7.4, 5 mM EDTA, 1% NP-40, and a protease inhibitor, and then centrifuged to obtain a total cell lysate. 20 μg to 30 μg of proteins collected from the total cell lysate was subjected to 7% to 9% SDS-PAGE, and was transferred to a polyvinylidene difluoride membrane (Millipore, Bedford, Mass., USA). […] Immunoreactive proteins were detected with Amersham ECL western blotting detection reagents using an HRP-conjugated secondary antibody (Zymed Lab). Protein concentrations were quantified by BCA (Pierce) analysis, and the expression of α-tubulin was monitored as a control. […]

MCP-1 = MCP-1 in alcoholic fatty liver mice model (ELISA, western blotting); format: in vivo, mice (C57BL/6); conditions: oral, 10 mg/kg body weight once a day for 2 weeks, alcohol group
Description: (§1) Eight-week-old black male laboratory mice (C57BL/6) were divided into: 1) control (n=8); 2) JC1-40-administered control (n=8); 3) alcohol group (n=12); and 4) JC1-40-administered alcohol group (n=12), and fed a Lieber-DeCarli liquid diet (Dyets Inc, Bethlehem, Pa., USA). The Lieber-DeCarli liquid diet in the form of powder was purchased, and then water was added thereto every morning to form a liquid-type feed such that 1 ml of the feed contained 1 kcal. The alcohol group was fed a gradually increasing amount of alcohol with an increment of 0.5% during a 2-week adaptation period, and then was fed a feed containing 5% alcohol for 5 weeks. The feed of the control included maltose dextrin instead of alcohol, and for pair-feeding, the feed included maltose dextrin in an amount providing the same calories as the calories that the amount of the feed fed to the mice of the alcohol group contained. During the 5-week ingestion of 5% alcohol, JC1-40 diluted with 0.5% carboxymethyl cellulose was orally administered once a day at a dose of 10 mg/kg body weight for 2 weeks prior to sacrificing the mice. After the 5-week alcohol feeding period was completed, the mice were fasted for 12 hours, and anesthetized to incise the abdomen, and blood and liver were removed from each mouse.

[2] = test system: white mice, common carotid artery damaged by balloon catheter; test: Inner vascular proliferation after balloon dilatation; format: in vivo; conditions: oral, 5 mg/kg, 14 days after balloon dilatation; H&E staining; FIG. 15
Description: To verify the inhibition of angiostenosis by JC1-40, white mice were administered JC1-40 for […], followed by balloon dilatation and subsequent additional administration of JC1-40 for 14 days. An experimental group was orally administered JC1-40 at a dose of 5 mg/kg (in 0.5% carboxymethyl cellulose, 2 ml/kg) (n=5), and a control was orally administered 0.5% carboxymethlycellulose at a dose of […] (n=5). The balloon dilatation was performed as follows. The cervical portion of each with mouse was incised to expose a common carotid artery, and the internal branch was tied at a site where the common carotid artery branches into the external branch and the internal branch. The external branch was partially incised, and then ballooning was performed three times with a 2F Fogarty balloon catheter to damage blood vessels. Subsequently, the balloon catheter was removed, and the incision site was tied. After balloon dilatation, the white mice were administered the drug for 14 days and then sacrificed to cut the site in artery that included the damaged region. The obtained blood vessels of each of the JC1-40 experimental group and the control were sectioned, the inner vascular layer thereof was subjected to Hematoxylin and Eosin (H&E) staining, and then the effect of JC1-40 on the inhibition of inner vascular proliferation was examined, and the results thereof are illustrated in FIG. 15. […]

[3] = test system: alcoholic fatty liver mice model; test: Alcoholic fatty liver mice model (Lieber-DeCarli liquid diet); format: in vivo, mice (C57BL/6); conditions: oral, 10 mg/kg body weight once a day for 2 weeks
Description: as §1

[4] = 30 mg/kg/day, compared to the high-fat diet group

CNC(=S)NCc1ccc(Oc2ccccc2)cc1 [Compound 42, 1-(4-phenoxy-benzyl)-3-methyl-thiourea]
amount of high-density lipoproteins [1, 4]: increased | amount of blood triglycerides, which had been increased by the high-fat diet [1]: decreased | amount of blood glucose [1]: not different from those in the high-fat diet group | amount of total blood cholesterol [1]: not different from those in the high-fat diet group | lipid accumulation in hepatocytes (HepG2 cells): significantly decreased | phosphorylation of ACC (ACC): increased

CNC(=S)NCc1ccc(OCc2ccccc2)cc1 [Compound 40, 1-(4-benzyloxy-benzyl)-3-methyl-thiourea]
GOP [1, 4]: decreased | GPT [1, 4]: decreased | amount of high-density lipoproteins [1, 4]: increased | amount of blood triglycerides, which had been increased by the high-fat diet [1]: decreased | amount of blood glucose [1]: not different from those in the high-fat diet group | amount of total blood cholesterol [1]: not different from those in the high-fat diet group | level of cytokine MCP-1 (ELISA) (MCP-1; FIG. 16c): significantly decreased | expression of the MCP-1 protein (western blotting) (MCP-1; FIG. 16e): decreased to the level of the control | lipid accumulation in hepatocytes (HepG2 cells): significantly decreased | proliferation of the inner vascular layer by balloon dilatation [2]: inhibited | GOT in plasma ([3]; alcohol group, FIG. 16a): decreases in GPT and GOT to levels of the control | GPT in plasma ([3]; alcohol group, FIG. 16a): decreases in GPT and GOT to levels of the control | level of blood triglycerides ([3]; alcohol group, FIG. 16b): significantly decreased | weight percentage of liver in body ([3]; alcohol group, FIG. 16d): decreased with high significance | accumulation of alcohol-induced lipid vesicles (Hematoxyllin & Eosin) ([3]; liver tissue): significantly reduced | phosphorylation of ACC (ACC): increased
